Values quoted from earlier work, collected in US20260207586A1, “PHARMACEUTICAL COMPOSITION COMPRISING LURBINECTEDIN, PREPARATION METHOD THEREFOR, AND USE THEREOF” (BrightGene Bio-Medical Technology Co., Ltd., priority 2022, published 2026).

Solubility in water: limited
Storage time under refrigeration (5° C.): 1 month
Stability at room temperature (25° C.): rapidly degraded
Structure (SMILES): COc1ccc2[nH]c3c(c2c1)CCN[C@]31CS[C@@H]2c3c(OC(C)=O)c(C)c4c(c3[C@H](COC1=O)N1[C@@H]2[C@H]2c3c(cc(C)c(OC)c3O)C[C@@H]([C@@H]1O)N2C)OCO4 [Lurbinectedin]
